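Cultured in 96-well plates, cells were exposed to test compound for 48 hours across five concentrations. TGI marks complete inhibition of growth.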
What was measured:
Assay in all cases: NCI-60 cell line screen, 48 h
OVCAR-3 ovarian = test system: OVCAR-3 ovarian
ACHN renal = test system: ACHN renal
HCC-2998 colon = test system: HCC-2998 colon
XF 498 CNS = test system: XF 498 CNS
OVCAR-8 ovarian = test system: OVCAR-8 ovarian
NCI-H460 lung = test system: NCI-H460 lung
M14 melanoma = test system: M14 melanoma
SF-295 CNS = test system: SF-295 CNS
UACC-257 melanoma = test system: UACC-257 melanoma
UO-31 renal = test system: UO-31 renal
NCI-H522 lung = test system: NCI-H522 lung
K-562 leukemia = test system: K-562 leukemia
SW-620 colon = test system: SW-620 colon
OVCAR-4 ovarian = test system: OVCAR-4 ovarian
A549 NSCLC = test system: A549 NSCLC
HL-60(TB) leukemia = test system: HL-60(TB) leukemia
SK-MEL-2 melanoma = test system: SK-MEL-2 melanoma
NCI-H226 lung = test system: NCI-H226 lung
786-0 renal = test system: 786-0 renal
HT29 colon = test system: HT29 colon
KM12 colon = test system: KM12 colon
SR leukemia = test system: SR leukemia
HOP-92 NSCLC = test system: HOP-92 NSCLC
EKVX NSCLC = test system: EKVX NSCLC
SNB-19 CNS = test system: SNB-19 CNS
SK-OV-3 ovarian = test system: SK-OV-3 ovarian
SN12C renal = test system: SN12C renal
DMS 114 small cell lung = test system: DMS 114 small cell lung
SF-539 CNS = test system: SF-539 CNS
OVCAR-5 ovarian = test system: OVCAR-5 ovarian
TK-10 renal = test system: TK-10 renal
KM20L2 colon = test system: KM20L2 colon
U251 CNS = test system: U251 CNS
MALME-3M melanoma = test system: MALME-3M melanoma
HCT-116 colon = test system: HCT-116 colon
COLO 205 colon = test system: COLO 205 colon
LXFL 529 NSCLC = test system: LXFL 529 NSCLC
M19-MEL melanoma = test system: M19-MEL melanoma
SF-268 CNS = test system: SF-268 CNS
LOX IMVI melanoma = test system: LOX IMVI melanoma
SNB-75 CNS = test system: SNB-75 CNS
MOLT-4 leukemia = test system: MOLT-4 leukemia
DLD-1 colon = test system: DLD-1 colon
RXF 393 renal = test system: RXF 393 renal
DMS 273 small cell lung = test system: DMS 273 small cell lung
IGROV1 ovarian = test system: IGROV1 ovarian
RXF-631 renal = test system: RXF-631 renal
HCT-15 colon = test system: HCT-15 colon
CCRF-CEM leukemia = test system: CCRF-CEM leukemia
CAKI-1 renal = test system: CAKI-1 renal
RPMI-8226 leukemia = test system: RPMI-8226 leukemia
NCI-H23 lung = test system: NCI-H23 lung
UACC-62 melanoma = test system: UACC-62 melanoma
HOP-62 NSCLC = test system: HOP-62 NSCLC
SNB-78 CNS = test system: SNB-78 CNS
SK-MEL-28 melanoma = test system: SK-MEL-28 melanoma

Measured: TGI

CN(Cc1ccccc1)C(=O)c1ccccc1C(=O)O
> 100 µM: OVCAR-3 ovarian | ACHN renal | HCC-2998 colon | XF 498 CNS | OVCAR-8 ovarian | NCI-H460 lung | M14 melanoma | SF-295 CNS | UACC-257 melanoma | UO-31 renal | NCI-H522 lung | K-562 leukemia | SW-620 colon | OVCAR-4 ovarian | A549 NSCLC | HL-60(TB) leukemia | SK-MEL-2 melanoma | NCI-H226 lung | 786-0 renal | HT29 colon | KM12 colon | SR leukemia | HOP-92 NSCLC | EKVX NSCLC | SNB-19 CNS | SK-OV-3 ovarian | SN12C renal | DMS 114 small cell lung | SF-539 CNS | OVCAR-5 ovarian | TK-10 renal | KM20L2 colon | U251 CNS | MALME-3M melanoma | HCT-116 colon | COLO 205 colon | LXFL 529 NSCLC | M19-MEL melanoma | SF-268 CNS | LOX IMVI melanoma | SNB-75 CNS | MOLT-4 leukemia | DLD-1 colon | RXF 393 renal | DMS 273 small cell lung | IGROV1 ovarian | RXF-631 renal | HCT-15 colon | CCRF-CEM leukemia | CAKI-1 renal | RPMI-8226 leukemia | NCI-H23 lung

O=C1c2ccccc2C(=O)C1(O)c1c[nH]c2ccccc12
> 100 µM: OVCAR-3 ovarian | UACC-62 melanoma | XF 498 CNS | OVCAR-8 ovarian | NCI-H460 lung | M14 melanoma | SF-295 CNS | UACC-257 melanoma | UO-31 renal | NCI-H522 lung | K-562 leukemia | SW-620 colon | OVCAR-4 ovarian | A549 NSCLC | HL-60(TB) leukemia | SK-MEL-2 melanoma | 786-0 renal | HT29 colon | KM12 colon | HOP-62 NSCLC | SR leukemia | HOP-92 NSCLC | EKVX NSCLC | SNB-19 CNS | SK-OV-3 ovarian | DMS 114 small cell lung | SF-539 CNS | OVCAR-5 ovarian | TK-10 renal | KM20L2 colon | U251 CNS | MALME-3M melanoma | HCT-116 colon | COLO 205 colon | LXFL 529 NSCLC | M19-MEL melanoma | SF-268 CNS | LOX IMVI melanoma | SNB-75 CNS | MOLT-4 leukemia | DLD-1 colon | SNB-78 CNS | IGROV1 ovarian | RXF-631 renal | HCT-15 colon | CCRF-CEM leukemia | CAKI-1 renal | RPMI-8226 leukemia | SK-MEL-28 melanoma | NCI-H23 lung
